Laboratory results as given in US20210045385A1, “PYRIDAZINONE-SUBSTITUTED KETOXIMES AS HERBICIDES” (FMC Corporation, priority 2018, published 2021).

Key:
Type in all cases: in vivo
[1] = test system: blackgrass (Alopecurus myosuroides); experiment: Test C postemergence, visual plant response rating
Outline: (§1)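 Compounds in a non-phytotoxic solvent with surfactant were applied as a directed soil spray preemergence or to 2–10 cm, one- to two-leaf plants postemergence, in loam–sand soil. After about 10 d in a greenhouse, injury was visually rated against untreated controls on a 0–100 scale (100 = complete control).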

[2] = test system: foxtail, giant (giant foxtail, Setaria faberi); experiment: Test C postemergence, visual plant response rating
Outline: as §1

[3] = test system: pigweed (Amaranthus retroflexus); experiment: Test C postemergence, visual plant response rating
Outline: as §1

[4] = test system: galium (catchweed bedstraw, Galium aparine); experiment: Test C postemergence, visual plant response rating
Outline: as §1

[5] = test system: barnyardgrass (Echinochloa crus-galli); experiment: Test C postemergence, visual plant response rating
Outline: as §1

[6] = test system: Italian ryegrass (Lolium mutiflorum); experiment: Test C postemergence, visual plant response rating
Outline: as §1

kochia (Bassia scoparia) [7] = experiment: Test C postemergence, visual plant response rating
Outline: as §1

corn (Zea mays) = experiment: Test C postemergence, visual plant response rating
Outline: as §1

[8] = test system: wheat (Triticum aestivum); experiment: Test C postemergence, visual plant response rating
Outline: as §1

[9] = test system: ragweed (common ragweed, Ambrosia artemisiifolia); experiment: Test C postemergence, visual plant response rating
Outline: as §1

[10] = test system: barnyardgrass (Echinochloa crus-galli); experiment: Test D flooded paddy test, visual plant response rating; details: 250 g ai/ha, scale 0 to 100 (0 no effect, 100 complete control), 13 to 15 d
Outline: (§2)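 2-leaf plants, flooded 3 cm, cpd into paddy water; greenhouse 13–15 d; visual rating vs controls, 0 = no effect, 100 = complete control; dash = no result.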

[11] = test system: duck salad (Heteranthera limosa); experiment: as above; details: 250 g ai/ha, scale 0 to 100 (0 no effect, 100 complete control), 13 to 15 d
Outline: as §2

[12] = test system: sedge umbrella (small-flower umbrella sedge, Cyperus difformis); experiment: as above; details: 250 g ai/ha, scale 0 to 100 (0 no effect, 100 complete control), 13 to 15 d
Outline: as §2

rice (Oryza sativa) = experiment: as above; details: 250 g ai/ha, scale 0 to 100 (0 no effect, 100 complete control), 13 to 15 d
Outline: as §2

[13] = test system: foxtail, giant (giant foxtail, Setaria faberi); experiment: Test C preemergence, visual plant response rating; details: Test C, 0 is no effect, 100 is complete control
Outline: as §1

[14] = test system: pigweed (Amaranthus retroflexus); experiment: Test C preemergence, visual plant response rating; details: Test C, 0 is no effect, 100 is complete control
Outline: as §1

[15] = test system: barnyardgrass (Echinochloa crus-galli); experiment: Test C preemergence, visual plant response rating; details: Test C, 0 is no effect, 100 is complete control
Outline: as §1

[16] = test system: Italian ryegrass (Lolium mutiflorum); experiment: Test C preemergence, visual plant response rating; details: Test C, 0 is no effect, 100 is complete control
Outline: as §1

kochia (Bassia scoparia) [17] = experiment: Test C preemergence, visual plant response rating; details: Test C, 0 is no effect, 100 is complete control
Outline: as §1

[18] = test system: ragweed (common ragweed, Ambrosia artemisiifolia); experiment: Test C preemergence, visual plant response rating; details: Test C, 0 is no effect, 100 is complete control
Outline: as §1

[19] = Test C, postemergence, 125 g ai/ha

Row | SMILES | Blackgrass plant response rating (0 to 100 scale) ([1]; Postemergence, 31 g ai/ha) | Blackgrass plant response rating (0 to 100 scale) [1, 19] | Foxtail, Giant plant response rating (0 to 100 scale) ([2]; Postemergence, 31 g ai/ha) | Foxtail, Giant plant response rating (0 to 100 scale) [2, 19] | Pigweed plant response rating (0 to 100 scale) ([3]; Postemergence, 31 g ai/ha) | Pigweed plant response rating (0 to 100 scale) [3, 19] | Galium plant response rating (0 to 100 scale) ([4]; Postemergence, 31 g ai/ha) | Galium plant response rating (0 to 100 scale) [4, 19] | Barnyardgrass plant response rating (0 to 100 scale) ([5]; Postemergence, 31 g ai/ha) | Barnyardgrass plant response rating (0 to 100 scale) [5, 19] | Ryegrass, Italian plant response rating (0 to 100 scale) ([6]; Postemergence, 31 g ai/ha) | Ryegrass, Italian plant response rating (0 to 100 scale) [6, 19] | Kochia plant response rating (0 to 100 scale) (kochia (Bassia scoparia) [7]; Postemergence, 31 g ai/ha) | Kochia plant response rating (0 to 100 scale) (kochia (Bassia scoparia) [7]; [19]) | Corn plant response rating (0 to 100 scale) (corn (Zea mays); Postemergence, 31 g ai/ha) | Corn plant response rating (0 to 100 scale) (corn (Zea mays); [19]) | Wheat plant response rating (0 to 100 scale) ([8]; Postemergence, 31 g ai/ha) | Wheat plant response rating (0 to 100 scale) [8, 19] | Ragweed plant response rating (0 to 100 scale) ([9]; Postemergence, 31 g ai/ha) | Ragweed plant response rating (0 to 100 scale) [9, 19] | further results
1 | CO/N=C(\c1cccc(/C=C/Cl)c1)c1c(O)c(C)nn(C)c1=O [Compound 286] | 20 | 0 | 0 | 20 | 20 | 50 | 50 | 60 | 0 | 30 | 0 | 0 | 10 | 30 | 0 | 0 | 30 | 30 | 30 | 50 | Plant response rating, Barnyardgrass (Flood) [10]: 0; Plant response rating, Ducksalad (Flood) [11]: 0; Plant response rating, Sedge, Umbrella (Flood) [12]: 0; Plant response rating, Rice (Flood) (rice (Oryza sativa)): 0; Foxtail, Giant plant response rating (0 to 100 scale) ([13]; 31 g ai/ha): 0; Foxtail, Giant plant response rating (0 to 100 scale) ([13]; 125 g ai/ha): 50; Pigweed plant response rating (0 to 100 scale) ([14]; 31 g ai/ha): 0; Pigweed plant response rating (0 to 100 scale) ([14]; 125 g ai/ha): 10; Barnyardgrass plant response rating (0 to 100 scale) ([15]; 31 g ai/ha): 60; Barnyardgrass plant response rating (0 to 100 scale) ([15]; 125 g ai/ha): 90; Ryegrass, Italian plant response rating (0 to 100 scale) ([16]; 31 g ai/ha): 0; Ryegrass, Italian plant response rating (0 to 100 scale) ([16]; 125 g ai/ha): 10; Kochia plant response rating (0 to 100 scale) (kochia (Bassia scoparia) [17]; 31 g ai/ha): 0; Kochia plant response rating (0 to 100 scale) (kochia (Bassia scoparia) [17]; 125 g ai/ha): 0; Ragweed plant response rating (0 to 100 scale) ([18]; 31 g ai/ha): 0; Ragweed plant response rating (0 to 100 scale) ([18]; 125 g ai/ha): 20
2 | CO/N=C(/c1ccc(F)c(Cl)c1)c1c(O)c(C)nn(C)c1=O [Compound 218] | 0 | 0 | 0 | 0 | 20 | 60 | 50 | 80 | 0 | 10 | 40 | 60 | 10 | 30 | 0 | 0 | 0 | 0 | 0 | 10 | Plant response rating, Barnyardgrass (Flood) [10]: 0; Plant response rating, Ducksalad (Flood) [11]: 0; Plant response rating, Sedge, Umbrella (Flood) [12]: 0; Plant response rating, Rice (Flood) (rice (Oryza sativa)): 0; Foxtail, Giant plant response rating (0 to 100 scale) ([13]; 31 g ai/ha): 0; Foxtail, Giant plant response rating (0 to 100 scale) ([13]; 125 g ai/ha): 0; Pigweed plant response rating (0 to 100 scale) ([14]; 31 g ai/ha): 0; Pigweed plant response rating (0 to 100 scale) ([14]; 125 g ai/ha): 0; Barnyardgrass plant response rating (0 to 100 scale) ([15]; 31 g ai/ha): 0; Barnyardgrass plant response rating (0 to 100 scale) ([15]; 125 g ai/ha): 0; Ryegrass, Italian plant response rating (0 to 100 scale) ([16]; 31 g ai/ha): 0; Ryegrass, Italian plant response rating (0 to 100 scale) ([16]; 125 g ai/ha): 10; Kochia plant response rating (0 to 100 scale) (kochia (Bassia scoparia) [17]; 31 g ai/ha): 0; Kochia plant response rating (0 to 100 scale) (kochia (Bassia scoparia) [17]; 125 g ai/ha): 0; Ragweed plant response rating (0 to 100 scale) ([18]; 31 g ai/ha): 0; Ragweed plant response rating (0 to 100 scale) ([18]; 125 g ai/ha): 0
3 | Cc1nn(C)c(=O)c(C(=NOC(C)C)c2cc(Cl)cc(Cl)c2Cl)c1O [Compound 295] | 0 | 0 | 70 | 90 | 60 | 90 | 100 | 100 | 50 | 70 | 100 | 100 | 0 | 50 | 0 | 30 | 30 | 100 | 100 | 100 | Plant response rating, Barnyardgrass (Flood) [10]: 60; Plant response rating, Ducksalad (Flood) [11]: 65; Plant response rating, Sedge, Umbrella (Flood) [12]: 70; Plant response rating, Rice (Flood) (rice (Oryza sativa)): 60; Foxtail, Giant plant response rating (0 to 100 scale) ([13]; 31 g ai/ha): 100; Foxtail, Giant plant response rating (0 to 100 scale) ([13]; 125 g ai/ha): 100; Pigweed plant response rating (0 to 100 scale) ([14]; 31 g ai/ha): 80; Pigweed plant response rating (0 to 100 scale) ([14]; 125 g ai/ha): 100; Barnyardgrass plant response rating (0 to 100 scale) ([15]; 31 g ai/ha): 0; Barnyardgrass plant response rating (0 to 100 scale) ([15]; 125 g ai/ha): 0; Ryegrass, Italian plant response rating (0 to 100 scale) ([16]; 31 g ai/ha): 80; Ryegrass, Italian plant response rating (0 to 100 scale) ([16]; 125 g ai/ha): 100; Kochia plant response rating (0 to 100 scale) (kochia (Bassia scoparia) [17]; 31 g ai/ha): 0; Kochia plant response rating (0 to 100 scale) (kochia (Bassia scoparia) [17]; 125 g ai/ha): 70; Ragweed plant response rating (0 to 100 scale) ([18]; 31 g ai/ha): 90; Ragweed plant response rating (0 to 100 scale) ([18]; 125 g ai/ha): 100
